Tests used:
[1] = target: Serine/threonine-protein kinase pim-1 (Homo sapiens, UniProt P11309); assay: ATP Depletion Assay: The activity of PIM1 is measured using a luciferase-luciferin based ATP detection reagent to quantify ATP depletion resulting from kinase-catalyzed phosphoryl transfer to a peptide substrate. Compounds to be tested are dissolved in 100% DMSO and directly distributed into white 384-well plates at 0.5 uA per well. To start the reaction, 10 ul of 5 nM Pim1 kinase and 80 uM BAD peptide (RSRHSSYPAGT-OH) in assay buffer (50 mM HEPES pH 7.5, 5 mM MgCl2, 1 mM DTT, 0.05% BSA) is added into each well. After 15 minutes, 10 ul of 40 uM ATP in assay buffer is added. Final assay concentrations are 2.5 nM PIM1, 20 uM ATP, 40 uM BAD peptide and 2.5% DMSO. The reaction is performed until approximately 50% of the ATP is depleted, then stopped with the addition of 20 ul KinaseGlo Plus (Promega Corporation) solution. The stopped reaction is incubated for 10 minutes and the remaining ATP detected via luminescence on the Victor2 (Perkin Elmer).
[2] = target: Serine/threonine-protein kinase pim-2 (Homo sapiens, UniProt Q9P1W9); assay: ATP Depletion Assay: The activity of PIM2 is measured using a luciferase-luciferin based ATP detection reagent to quantify ATP depletion resulting from kinase-catalyzed phosphoryl transfer to a peptide substrate. Compounds to be tested are dissolved in 100% DMSO and directly distributed into white 384-well plates at 0.5 ul per well. To start the reaction, 10 ul of 10 nM Pim2 kinase and 20 uM BAD peptide (RSRHSSYPAGT-OH) in assay buffer (50 mM HEPES pH 7.5, 5 mM MgCl2, 1 mM DTT, 0.05% BSA) is added into each well. After 15 minutes, 10 ul of 8 uM ATP in assay buffer is added. Final assay concentrations are 5 nM PIM2, 4 uM ATP, 10 uM BAD peptide and 2.5% DMSO. The reaction is performed until approximately 50% of the ATP is depleted, then stopped with the addition of 20 ul KinaseGlo Plus (Promega Corporation) solution. The stopped reaction is incubated for 10 minutes and the remaining ATP detected via luminescence on the Victor2 (Perkin Elmer).
[3] = target: Serine/threonine-protein kinase pim-3 (Homo sapiens, UniProt Q86V86); assay: ATP Depletion Assay: The activity of PIM3 is measured using a luciferase-luciferin based ATP detection reagent to quantify ATP depletion resulting from kinase-catalyzed phosphoryl transfer to a peptide substrate. Compounds to be tested are dissolved in 100% DMSO and directly distributed into white 384-well plates at 0.5 uA per well. To start the reaction, 10 ul of 10 nM Pim3 kinase and 200 uM BAD peptide (RSRHSSYPAGT-OH) in assay buffer (50 mM HEPES pH 7.5, 5 mM MgCl2, 1 mM DTT, 0.05% BSA) is added into each well. After 15 minutes, 10 ul of 80 uM ATP in assay buffer is added. Final assay concentrations are […], 40 uM ATP, 100 uM BAD peptide and 2.5% DMSO. The reaction is performed until approximately 50% of the ATP is depleted, then stopped by the addition of 20 ul KinaseGlo Plus (Promega Corporation) solution. The stopped reaction is incubated for 10 minutes and the remaining ATP detected via luminescence on the Victor2 (Perkin Elmer).

Chain of Serine/threonine-protein kinase pim-1 (P11309 whole entry): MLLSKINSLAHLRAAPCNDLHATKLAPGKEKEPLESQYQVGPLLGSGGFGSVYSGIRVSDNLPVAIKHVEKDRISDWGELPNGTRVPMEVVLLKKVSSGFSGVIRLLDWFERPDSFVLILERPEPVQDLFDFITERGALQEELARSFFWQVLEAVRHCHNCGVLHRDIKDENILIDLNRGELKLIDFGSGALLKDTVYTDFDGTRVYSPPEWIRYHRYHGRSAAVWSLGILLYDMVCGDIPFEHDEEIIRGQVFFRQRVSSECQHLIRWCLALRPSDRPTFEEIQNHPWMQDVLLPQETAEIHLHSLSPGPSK
Chain of Serine/threonine-protein kinase pim-2 (Q9P1W9 whole entry): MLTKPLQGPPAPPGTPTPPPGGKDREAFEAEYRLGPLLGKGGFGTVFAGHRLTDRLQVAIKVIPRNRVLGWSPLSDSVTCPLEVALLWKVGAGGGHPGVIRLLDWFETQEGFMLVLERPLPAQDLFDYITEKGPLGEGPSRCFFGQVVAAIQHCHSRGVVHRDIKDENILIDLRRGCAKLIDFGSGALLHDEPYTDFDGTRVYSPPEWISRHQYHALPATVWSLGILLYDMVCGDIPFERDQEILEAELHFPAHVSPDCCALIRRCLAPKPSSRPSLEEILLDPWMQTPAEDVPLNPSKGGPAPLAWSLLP

Row | IC50 [1] [µM] | IC50 [2] [µM] | IC50 [3] [µM] | SMILES
1 | 0.796 | 0.286 | – | N[C@H]1C[C@@H](CO)CN(c2ccncc2Nc2cccc3ccc(-c4c(F)cccc4F)nc23)C1
2 | 0.589 | 0.512 | 0.061 | N[C@H]1C[C@@H](O)CN(c2ccncc2Nc2cccc3ccc(-c4c(F)cccc4F)nc23)C1

Source: ChEMBL document CHEMBL3638844, “Heterocyclic kinase inhibitors” (2014)
